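Test compounds were applied to cells in 96-well plates for 48 hours at 5 doses. GI50 marks 50% less growth. TGI is the concentration that stops growth completely.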

From PubChem BioAssay (NCI) come the findings set out here.

What all share (test): inhibition of tumour cell growth, NCI panel, 48 h
Assay [1] deals with CCRF-CEM leukemia.
Assay [2] relates to DU-145 prostate.
Assay [3] relates to HCT-15 colon.
Assay [4] has as its system K-562 leukemia.
Assay [5] deals with KM12 colon.
The test system of assay [6] is SNB-19 CNS.
In assay [7] the test system is UO-31 renal.
Assay [8] relates to HCT-116 colon.
Assay [9] relates to HT29 colon.
The test system of assay [10] is SNB-75 CNS.

As to `CC1(C)CCC[C@]2(C)[C@H]3[C@H](C#N)c4cc(O)c(O)cc4O[C@@]3(C)CC[C@@H]12`, the TGI in assay [1], in assay [2], in assay [3], in assay [4], in assay [5] and in assay [6] was over 10 µM each time. Also, the TGI in assay [7] is over 10 µM.
As to `COc1cccc(NC(=O)/C(Cc2nc3ccccc3nc2C)=N/NC(=O)C[n+]2ccccc2)c1`, the TGI in assay [1], in assay [8], in assay [3], in [9], in [4] and in [5] was over 100 µM throughout. Moreover, the TGI in assay [6], in assay [10] and in [7] was over 100 µM throughout.
Take `Cn1cc(-c2ccc(-c3ccc(C4=NC5(CC5)C(=O)N4C[C@@H]4CCN(C(=O)C5CC5)C4)cc3)cc2)cn1`: the GI50 in assay [1] is 6.01 µM; in [8] it was 11.7 µM; in [3], 2.71 µM; in assay [9], 12.5 µM; in [4], 7.11 µM; in [5], 5.39 µM. For the same compound, the GI50 was 21.8 µM in [6], 20 µM in assay [10] and 1.47 µM in [7]. The TGI in assay [1] was 42.5 µM; in [8], over 100 µM; in assay [3], 43 µM; in [9], over 100 µM; in assay [4], over 100 µM; in [5] it was 32.1 µM. In addition, the TGI in assay [6], in [10] and in assay [7] was over 100 µM in each case.
`Cc1cc(C)cc(NC(N)=S)c1`: the TGI in assay [1] was 48 µM; in assay [8] it was over 100 µM; in assay [3], 38.4 µM; in [9], over 100 µM; in [4] it was over 100 µM; in assay [5], over 100 µM. The TGI in [6], in assay [10] and in assay [7] was over 100 µM in each case.
As for `CCN(CC)C(=O)C(C)n1cc(C)c(=O)[nH]c1=O` (stereo unspecified), the TGI in assay [1], in [8], in assay [3], in [9], in [4] and in assay [5] was over 100 µM each time. Moreover, the TGI was over 100 µM in [6], 98.6 µM in assay [10] and over 100 µM in assay [7].
For the compound `N#CC1CC2(CCN1C(=O)c1ccccc1)OCCO2` (stereo unspecified), the TGI in [1], in assay [8], in assay [3], in assay [9], in assay [4] and in [5] was over 100 µM throughout. The TGI in [6], in assay [10] and in assay [7] was over 100 µM in each case.
Turning to `CC(=O)C1=C(O)CC2CC3c4[nH]c5ccccc5c4CCN3CC2C1` (stereo unspecified), the TGI in assay [1] is 87.7 µM; in assay [8] it was over 100 µM; in assay [3] it was over 100 µM; in assay [9], over 100 µM; in assay [4] it was over 100 µM; in assay [5], over 100 µM. The TGI in assay [6], in assay [10] and in assay [7] was over 100 µM each time.
In the case of `N#CC1(C#N)C(C#N)(C#N)C12CCCCCC2`, the TGI was 6.89 µM in assay [1]; 17.5 µM in [8]; 24.2 µM in [3]; 34.6 µM in [9]; over 30.3 µM in [4]; 19.3 µM in assay [5]. Moreover, the TGI in assay [6] was over 87.8 µM; in [10], over 55.3 µM; in assay [7] it was 32.8 µM.
With `O=C(c1ccccc1)c1cn(/N=C\c2ccccc2)c(=O)nc1-c1ccccc1`, the TGI in [1], in assay [8], in assay [3], in assay [9], in assay [4] and in [5] was over 100 µM throughout. Further, the TGI in assay [6], in assay [10] and in [7] was over 100 µM throughout.
As to `CCOc1ccc2nc(NC(=O)C(=O)C(c3cnc4ccccc4n3)[N+](=O)[O-])sc2c1` (stereo unspecified), the TGI in assay [1], in [8], in [3], in assay [9], in [4] and in [5] was over 100 µM throughout. In addition, the TGI in [6], in assay [10] and in [7] was over 100 µM throughout.
For the compound `CC(C)(c1ccccc1)c1ccc(OC#N)cc1`, the TGI in assay [1] was over 76.3 µM; in assay [8], over 65.7 µM; in assay [3] it was 31.3 µM; in assay [9], over 100 µM; in [4], over 100 µM; in assay [5], over 100 µM. In addition, the figures for the TGI in assay [6], in [10] and in assay [7] were over 100 µM, over 74.4 µM and 98 µM, respectively.
